Assay results published in patent US20210087156A1, “PHARMACEUTICALLY ACCEPTABLE SALTS OF BENZODICYCLOALKANE DERIVATIVE, P[…] THEREOF, AND APPLICATION THEREOF” (priority 2018, published 2021).
Values after ≈ are worked out from the molar mass of the structure shown.

Assays:
[1] = target: δ opioid receptors (Homo sapiens, UniProt P41143); settings: background statement; cited from earlier work
[2] = In vivo test of rats: pharmacokinetics after oral administration; settings: male, SD, rat, 10 mg/kg, oral administration of dezocine in rats, dose of dezocine 10mpk
Description: LC-MS/MS method was applied for the determination of the drug concentration in plasma at different times after the example compounds were orally administered to rats in order to study the pharmacokinetic behavior of the compounds of the invention in vivo in rats and evaluate their pharmacokinetic characteristics.
Test Animals: healthy Adult male SD rats (weight 200-300 g, 3, fasted), provided by SLAC company;
Administration and Dosage: (16 mg/kg or 24 mg/kg, 10 mL/kg, 5% 1,2-propanediol (1,2-Propanediol, Shanghai Titan Technology Co., Ltd. Lot No.: P1057349)) was administered via oral gavage to SD rats;
Blood collection: firstly, the animals which were selected to meet the test requirements prior to administration were weighed. The rats were bound before the blood collection, blood from each administered rat was taken at predetermined time points, (blood was collected at 0.083, 0.25, 0.5, 1, 2, 4, 6, 8 h before and after administration respectively, 9 time points in total), about 150 μl of blood was collected via orbital vein. Blood was transferred to a 1.5 ml tube to which K2EDTA was added previously. The collected blood sample was put on ice, and centrifuged to obtain plasma sample (2000 g, 5 min under 4° C.) within 15 minutes. All the plasma samples were stored at approximately −70° C. until analysis.
LC/MS/MS method was applied to determine the concentrations of the drug. […]

[3] = background statement, cited from earlier work
[4] = Stability test of free base, crystal form A and crystal form C (content and related substance); type: physicochemical; settings: 5° C.
Description: The crystal form and purity change were measured respectively on 3rd and 7th day. The results are shown in Table 6, FIGS. 22, 23, 24 and 25. […]

[5] = target: T1, CYP3A4 (Homo sapiens, UniProt P08684); test: Inhibition of CYP enzyme (CYP3A4, midazolam substrate, HLM); type: in vitro ADME
T1 construct: Add 200 μL of 0.2 mg/mL HLM to the assay wells; from tissue; host or cells: liver microsomes (HLM)
T1 sequence (P08684 whole entry): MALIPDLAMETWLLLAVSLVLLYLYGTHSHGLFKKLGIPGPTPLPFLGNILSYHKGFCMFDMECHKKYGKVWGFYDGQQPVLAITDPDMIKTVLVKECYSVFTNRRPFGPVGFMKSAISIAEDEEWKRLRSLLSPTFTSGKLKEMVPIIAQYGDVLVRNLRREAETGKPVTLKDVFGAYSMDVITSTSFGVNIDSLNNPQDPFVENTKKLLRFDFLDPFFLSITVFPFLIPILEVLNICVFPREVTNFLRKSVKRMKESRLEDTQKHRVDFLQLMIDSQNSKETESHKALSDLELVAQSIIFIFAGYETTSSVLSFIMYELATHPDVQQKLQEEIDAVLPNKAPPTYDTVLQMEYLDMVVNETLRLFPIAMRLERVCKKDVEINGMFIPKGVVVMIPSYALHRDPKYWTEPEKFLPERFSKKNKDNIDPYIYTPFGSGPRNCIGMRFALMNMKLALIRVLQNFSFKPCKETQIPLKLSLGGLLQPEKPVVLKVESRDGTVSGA
Description: 1. Preheat 0.1 M potassium phosphate buffer (K-buffer), pH 7.4:
100 mM K-Buffer: mix 9.5 mL Stock A into 40.5 mL Stock B, bring total volume to 500 mL with Milli-Q water, titrate the buffer with KOH or H3PO4 to pH 7.4.
Stock A (1 M monobasic potassium phosphate): 136.5 g of monobasic potassium phosphate in 1 L of Milli-Q water.
Stock B (1 M dibasic potassium phosphate): 174.2 g of dibasic potassium phosphate in 1 L of Milli-Q water.
2. Prepare serial dilution for test compounds and reference inhibitors (400×) in a 96-well plate:
2.1 Transfer 8 μL of 10 mM test compounds to 12 μL of ACN.
2.2 Prepare individual inhibitor spiking solution for reference: 8 μL of DMSO stock to 12 μL of ACN.
2.3 Prepare 1:3 serial dilutions in DMSO:ACN mixture (v/v: 40:60).
3. Prepare 4×NADPH cofactor (66.7 mg NADPH in 10 mL 0.1 M K-buffer, pH7.4).
4. Prepare 4×substrate (2 mL for each isoform) as indicated in the table below (add HLM where required on ice).
5. Prepare 0.2 mg/mL HLM solution (10 μL of 20 mg/mL to 990 μL of 0.1 M K-buffer) on ice.
6. Add 200 μL of 0.2 mg/mL HLM to the assay wells and then add 1 μL of test compounds or reference compounds into the designated wells on ice.
7. Add following solutions (in duplicate) in a 96-well assay plate on ice:
7.1 Add 30 μL of 2×test compounds and reference compound in 0.2 mg/mL HLM solution;
7.2 Add 15 μL of 4×substrate solution.
8. […]

[6] = Potency compared with the existing dezocine (statement, no method given)
[7] = target: T2, hERG potassium ion channel (Homo sapiens, UniProt Q12809); test: Inhibition of hERG potassium ion channel, manual whole-cell patch clamp in CHO hERG cells; type: cell-based
T2 construct: host or cells: CHO cells stably expressing hERG
T2 sequence (Q12809 whole entry): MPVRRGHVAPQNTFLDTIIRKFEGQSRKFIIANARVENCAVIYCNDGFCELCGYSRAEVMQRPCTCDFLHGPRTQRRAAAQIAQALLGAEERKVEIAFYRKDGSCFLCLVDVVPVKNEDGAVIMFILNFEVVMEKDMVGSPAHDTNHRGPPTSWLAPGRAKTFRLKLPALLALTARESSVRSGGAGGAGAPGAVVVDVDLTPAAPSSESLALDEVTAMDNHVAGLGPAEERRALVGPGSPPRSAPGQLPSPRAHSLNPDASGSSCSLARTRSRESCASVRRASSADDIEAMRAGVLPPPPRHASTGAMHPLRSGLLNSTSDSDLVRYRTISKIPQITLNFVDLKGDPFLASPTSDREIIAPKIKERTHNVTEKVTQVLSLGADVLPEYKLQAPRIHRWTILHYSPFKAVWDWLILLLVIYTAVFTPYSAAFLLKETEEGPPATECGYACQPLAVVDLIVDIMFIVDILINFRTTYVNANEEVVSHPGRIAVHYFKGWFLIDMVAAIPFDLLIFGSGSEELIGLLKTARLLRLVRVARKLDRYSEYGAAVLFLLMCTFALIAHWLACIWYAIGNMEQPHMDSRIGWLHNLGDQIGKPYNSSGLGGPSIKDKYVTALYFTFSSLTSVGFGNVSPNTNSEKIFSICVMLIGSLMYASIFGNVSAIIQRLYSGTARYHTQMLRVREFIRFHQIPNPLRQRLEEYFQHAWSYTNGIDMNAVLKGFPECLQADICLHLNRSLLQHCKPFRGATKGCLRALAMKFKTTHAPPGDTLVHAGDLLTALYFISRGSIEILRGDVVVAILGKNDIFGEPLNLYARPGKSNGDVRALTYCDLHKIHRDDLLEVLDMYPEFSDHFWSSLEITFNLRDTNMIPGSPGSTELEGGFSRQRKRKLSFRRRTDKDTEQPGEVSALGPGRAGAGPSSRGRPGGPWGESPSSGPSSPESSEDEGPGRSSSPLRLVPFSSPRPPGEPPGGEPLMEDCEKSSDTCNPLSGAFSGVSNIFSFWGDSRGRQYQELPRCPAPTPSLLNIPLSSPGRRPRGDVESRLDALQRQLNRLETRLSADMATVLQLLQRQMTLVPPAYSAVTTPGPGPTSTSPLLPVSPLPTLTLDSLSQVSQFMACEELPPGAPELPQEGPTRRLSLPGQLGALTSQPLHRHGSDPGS
Description: 2.1.1 Cells used in this experiment are CHO cell lines (supplied by Sophion Bioscience, Denmark) which are hERG cDNA transfectant and stably express hERG channels, cell progeny is P15. Cells are cultured in medium containing the following ingredients Invitrogen): Ham's F12 medium, 10% (v/v) inactivated fetal bovine serum, […] hygromycin B, […] Geneticin.
2.1.2 CHO hERG cells were grown in Petri dishes containing the above medium and cultured in an incubator containing 5% CO2 at 37° C. […]
In this experiment, whole-cell current recording was performed using a manual patch clamp system (HEKA EPC-10 signal amplification and digital conversion system, purchased from HEKA Electronic, Germany) The round glass slide of which surface CHO hERG cells were grown on was placed in an electrophysiological recording slot under an inverted microscope. […] The hERG potassium current recorded in the above steps should be superfused for test drug after the steady perfusion state of the extracellular fluid in the recording slot is stabilized until the inhibition of the hERG current by the drug reached a steady state. […]
The test data were analyzed by the data analysis software provided by HEKA Patchmaster (V2x73.2), Microsoft Excel and Graphpad Prism 5.0.

[8] = Solubility test at room temperature; type: physicochemical; settings: room temperature, shaken 24 h
Description: The solubility of the crystal form A, the crystal form C and the free base in 0.1 M HCL, pH 4.5, or pH 6.8 buffer or water was tested at room temperature. In the test, the standard curves of the crystal form A, the crystal form C and the free base were plotted respectively. Subsequently, a appropriate amount of the crystal form A, the crystal form C and the free base was weighed respectively, to which was added a appropriate amount of solvent. The mixture was shaken at room temperature for 24 h, centrifuged. The supernatant was taken and the solubility was determined. The results are shown in Table 7, (the concentration unit is mg/mi).

Chain of δ opioid receptors (P41143 whole entry): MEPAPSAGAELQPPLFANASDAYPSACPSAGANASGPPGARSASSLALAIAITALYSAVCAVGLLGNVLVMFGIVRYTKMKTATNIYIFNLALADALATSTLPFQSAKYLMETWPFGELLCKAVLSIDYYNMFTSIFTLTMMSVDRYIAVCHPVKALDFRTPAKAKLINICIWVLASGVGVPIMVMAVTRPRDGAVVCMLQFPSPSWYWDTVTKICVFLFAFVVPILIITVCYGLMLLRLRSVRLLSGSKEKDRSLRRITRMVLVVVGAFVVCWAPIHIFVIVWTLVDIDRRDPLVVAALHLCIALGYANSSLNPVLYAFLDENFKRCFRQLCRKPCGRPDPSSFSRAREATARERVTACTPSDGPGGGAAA

C[C@@]12CCCCC[C@@H](Cc3ccc(O)cc31)[C@@H]2N [dezocine]
activity on δ opioid receptors (in words) [1]: very weak | AUC [2]: 58.6 ng·h/mL | oral bioavailability [3]: ≤ 5% | time after which the blood drug concentration falls below the effective level ([3]; injection): 2 to 3 h

C[C@@]12CCCCC[C@@H](Cc3ccc(OC(=O)NC4COC4)cc31)[C@@H]2N [free base of Compound X]
RRT(%) 0.76 (related substance) ([4]; 0 d): 1.19% | RRT(%) 1.29 (related substance) ([4]; 0 d): 3.35% | RRT(%) 1.53 (related substance) ([4]; 0 d): 0.18% | RRT(%) 1.59 (related substance) ([4]; 0 d): 0.97% | RRT(%) 1.75 (related substance) ([4]; 0 d): 0.43% | Area (%) ([4]; 0 d (control)): 93.88% | Total impurity (%) ([4]; 0 d (control)): 6.12% | character ([4]; 0 d (control)): off-white solid | inhibitory activity on CYP3A4 (in words) ([5]; 1 μM): little inhibitory activity | inhibition at 5 min, 1 μM ([5]; human, human liver microsomes, pH 7.4, probe midazolam, substrate midazolam (M), 0.1 mg/mL HLM, read-out: CYP3A4(M) inhibition rate/1 μM): 23.8% | potency compared with the existing dezocine [6]: increased more than three-fold | inhibitory activity on the hERG potassium ion channel (in words) ([7]; 10 μM): little inhibitory activity | inhibition at 10 μM ([7]; human, CHO cells stably expressing hERG channels, CHO hERG cells, patch clamp, ~25° C.): 20.6% | Final pH ([8]; 0.1M HCL): 1.30 | phenomenon ([8]; 0.1M HCL): Flocculent | solubility ([8]; 0.1M HCL): 18860 µg/mL (≈ 54.8 mM) | Final pH ([8]; H2O): 8.61 | phenomenon ([8]; H2O): turbid | solubility ([8]; H2O): 50 µg/mL (≈ 0.145 mM) | Final pH ([8]; pH 4.5 buffer): 6.41 | phenomenon ([8]; pH 4.5 buffer): turbid | solubility ([8]; pH 4.5 buffer): 3750 µg/mL (≈ 10.9 mM) | Final pH ([8]; pH 6.8 buffer): 6.78 | phenomenon ([8]; pH 6.8 buffer): turbid | solubility ([8]; pH 6.8 buffer): 2030 µg/mL (≈ 5.89 mM)
